Source: PubChem BioAssay AID2060356 (Molecular Pharmacology Branch, DTP, NCI, 2025)
Values joined by “and” are separate entries in the source; they are usually repeats but may differ in a detail not shown here. Equal values may be shown once.

System: PDC tumor spheroids with HUVEC/MSC, viability
Experiment: Anticancer human tumor 439559-082-T-J2-PDC patient-derived colon adenocarcinoma cell line growth inhibition [TAK]
Settings: for viability, T/C: stronger effect = lower value
Excerpt: Combinatorial screen of targeted agents with TAK-243 and ipatasertib in multi-cell type tumor spheroids
A high-throughput screen of multi-cell type tumor spheroids was designed to identify active combinations of targeted small molecules and TAK-243 or ipatasertib. Complex spheroids include a stromal component modeled by human endothelial cells (HUVEC) and fibroblasts modeled by human mesenchymal stem cells (MSCs). The concentration ranges selected for each drug and investigational agent were based upon clinically achievable concentrations if the clinical Cmax of the agent was known.
Compounds. The drugs and investigational agents: TAK-243 (785004), ipatasertib (767898), everolimus (733504), selumetinib (741078), bortezomib (756655), trametinib (758246), ixazomib (758254), vemurafenib (761431), dabrafenib (764134), sapanisertib (764658), alpelisib (765974), and copanlisib (816437), were obtained from the National Cancer Institute (NCI) Developmental Therapeutics Program Chemical Repository. The FDA-approved anticancer drug set is available from the NCI Developmental Therapeutics Program. […] The stock solutions were prepared in dimethyl sulfoxide (DMSO, Sigma-Aldrich, St. Louis, MO, cat. D2650) at 800-fold the tested concentration and stored at -70 degrees C prior to their use. All drugs and investigational agents were tested over a range starting from a high concentration at or near the clinical Cmax and decreasing in half-log increments. If the clinical Cmax for an agent had not been determined, the highest concentration tested was 10 microM.
NCI60 Cell Culture. NCI60 cell lines were obtained from the NCI Developmental Therapeutics Program Tumor Repository. For each lot of cells, the Repository performed Applied Biosystems AmpFLSTR Identifiler testing with PCR amplification to confirm consistency with the published Identifier STR profile for each cell line. Cells were kept in continuous culture for no more than 20 passages. The optimal seeding densities for each of the cell lines at each time point assessed were determined prior to performing the concentration response studies. Briefly, the NCI60 human tumor lines were grown as monolayers in RPMI 1640 medium supplemented with 10% FBS and 2 mmol/L L-glutamine.
An additional 2 lines were from the NCI60 cell line panel including melanomas, MALME-3M and SK-MEL-2. Pooled donor human umbilical vein endothelial cells (HUVEC, Lonza, cat. CC-2519) and human mesenchymal stem cells (hMSC, Lonza, cat. PT-2501) were purchased from Lonza (Walkersville, MD).
PDMR cell lines were grown in complete medium (DC medium): Dulbecco's modified Eagle's medium (DMEM)/F12 supplemented with 5% fetal bovine serum (FBS), 2 mM L-glutamine, 100 U/mL penicillin and 100 µg/ml streptomycin, 0.4 µg/ml hydrocortisone, 10 ng/ml epidermal growth factor (EGF) recombinant human protein, 24 µg/mL adenine, and 0.1 mg/mL primocin. During culture from frozen stock vials, PDMR cells were cultured in the same medium containing 10 µM Y-27632 (see Table 3). The PDCs were cultured in complete DMEM/F12 media without 10 microM Y-27632 dihydrochloride for at least two passages prior to the screen. The pooled donor HUVEC and hMSC were cultured in endothelial cell growth medium 2 (PromoCell, Heidelberg, Germany, cat. C-22011) and mesenchymal stem cell growth medium 2 (PromoCell, cat. C-28009), respectively. For all experiments, HUVEC and hMSC were used at passages </=5.
For the pre-screen, cell seeding densities were determined from a titration spanning the range from 5,000 to 313 cells per well. The mct-spheroids including 60% malignant cells, 25% HUVEC and 15% MSC dispensed as a mixture into U-bottom Ultra-Low Attachment 384-well plates (Corning, NY)
High-throughput Drug Combination Screening.
Prior to their inoculation into 384-well plates, malignant cells, HUVEC, and hMSC were removed from T flasks using TrypLE express (Thermo Fisher Scientific, cat. 12605036) and harvested by centrifugation for 5 min at 233 x g. […]

[1] = curve of first compound, second compound 0.3 µM
[2] = curve of first compound, second compound 0.949 µM
[3] = curve of first compound, second compound 3 µM
[4] = curve of first compound, second compound 9.49 µM
[5] = curve of first compound, second compound 30 µM
[6] = second compound 0.3 µM, first compound 0.000316 µM
[7] = second compound 0.3 µM, first compound 0.001 µM
[8] = second compound 0.3 µM, first compound 0.00316 µM
[9] = second compound 0.3 µM, first compound 0.01 µM
[10] = second compound 0.949 µM, first compound 0.000316 µM
[11] = second compound 0.949 µM, first compound 0.001 µM
[12] = second compound 0.949 µM, first compound 0.00316 µM
[13] = second compound 0.949 µM, first compound 0.01 µM
[14] = second compound 3 µM, first compound 0.000316 µM
[15] = second compound 3 µM, first compound 0.001 µM
[16] = second compound 3 µM, first compound 0.00316 µM
[17] = second compound 3 µM, first compound 0.01 µM
[18] = second compound 9.49 µM, first compound 0.000316 µM
[19] = second compound 9.49 µM, first compound 0.001 µM
[20] = second compound 9.49 µM, first compound 0.00316 µM
[21] = second compound 9.49 µM, first compound 0.01 µM
[22] = second compound 30 µM, first compound 0.000316 µM
[23] = second compound 30 µM, first compound 0.001 µM
[24] = second compound 30 µM, first compound 0.00316 µM
[25] = second compound 30 µM, first compound 0.01 µM
[26] = second compound 0.3 µM, first compound 0.0316 µM
[27] = second compound 0.3 µM, first compound 0.1 µM
[28] = second compound 0.949 µM, first compound 0.0316 µM
[29] = second compound 0.949 µM, first compound 0.1 µM
[30] = second compound 3 µM, first compound 0.0316 µM
[31] = second compound 3 µM, first compound 0.1 µM
[32] = second compound 9.49 µM, first compound 0.0316 µM
[33] = second compound 9.49 µM, first compound 0.1 µM
[34] = second compound 30 µM, first compound 0.0316 µM
[35] = second compound 30 µM, first compound 0.1 µM
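Note: spheroids exposed to drugs for seven days before readout.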

With `CC(C)CC(NC(=O)C(Cc1ccccc1)NC(=O)c1cnccn1)B(O)O` (centres undefined) + CC(C)NCC(C(=O)N1CCN(c2ncnc3c2C(C)CC3O)CC1)c1ccc(Cl)cc1 the IC50 [1] was greater than 10 nM, the IC50 [2] was greater than 10 nM and the IC50 [3] was greater than 10 nM. It also gave an IC50 [4] greater than 10 nM, an IC50 [5] greater than 10 nM and a viability, T/C (second compound 0.3 µM, first compound 31.6 pM) of 112%. For the same compound, the viability, T/C (second compound 0.3 µM, first compound 0.0001 µM) was 94.2%, the viability, T/C [6] was 96.6% and the viability, T/C [7] was 97.7%. It also gave a viability, T/C [8] of 97.7%, a viability, T/C [9] of 80.3% and a viability, T/C (second compound 0.949 µM, first compound 31.6 pM) of 105%. It also gave a viability, T/C (second compound 0.949 µM, first compound 0.0001 µM) of 107%, a viability, T/C [10] of 92.5% and a viability, T/C [11] of 105%. For the same compound, the viability, T/C [12] was 93.2%, the viability, T/C [13] was 74% and the viability, T/C (second compound 3 µM, first compound 31.6 pM) was 102%. It also gave a viability, T/C (second compound 3 µM, first compound 0.0001 µM) of 98.2%, a viability, T/C [14] of 93% and a viability, T/C [15] of 102%. For the same compound, the viability, T/C [16] was 89.3%, the viability, T/C [17] was 70% and the viability, T/C (second compound 9.49 µM, first compound 31.6 pM) was 93.3%. For the same compound, the viability, T/C (second compound 9.49 µM, first compound 0.0001 µM) was 97.6%, the viability, T/C [18] was 92.9% and the viability, T/C [19] was 84.4%. It also gave a viability, T/C [20] of 85.5%, a viability, T/C [21] of 69.3% and a viability, T/C (second compound 30 µM, first compound 31.6 pM) of 85.8%. For the same compound, the viability, T/C (second compound 30 µM, first compound 0.0001 µM) was 98.5%, the viability, T/C [22] was 87.3% and the viability, T/C [23] was 89.2%. It also gave a viability, T/C [24] of 86% and a viability, T/C [25] of 69.1%.
In the case of `CC(C)n1nc(-c2ccc3oc(N)nc3c2)c2c(N)ncnc21`, the viability, T/C (compound 0.000316 µM) is reported as 106% and 115%, the viability, T/C (compound 0.001 µM) is reported as 99.2% and 110% and the viability, T/C (compound 0.00316 µM) is reported as 97.8% and 105%. The viability, T/C (compound 0.01 µM) was 83.5% and 85.3%, the viability, T/C (compound 0.0316 µM) was 76% and 76.8% and the viability, T/C (compound 0.1 µM) was 69.8% and 74.7%. The IC50 (curve of compound) was greater than 100 nM.
`CC(C)(C)c1nc(-c2cccc(NS(=O)(=O)c3c(F)cccc3F)c2F)c(-c2ccnc(N)n2)s1` + CC(C)NCC(C(=O)N1CCN(c2ncnc3c2C(C)CC3O)CC1)c1ccc(Cl)cc1 was tested, and the IC50 [1] was greater than 10000 nM, the IC50 [2] was greater than 10000 nM and the IC50 [3] was greater than 10000 nM. It also gave an IC50 [4] greater than 10000 nM, an IC50 [5] greater than 10000 nM and a viability, T/C [26] of 123%. The viability, T/C [27] was 108%, the viability, T/C (second compound 0.3 µM, first compound 0.316 µM) was 106% and the viability, T/C (second compound 0.3 µM, first compound 1 µM) was 110%. The viability, T/C (second compound 0.3 µM, first compound 3.16 µM) was 113%, the viability, T/C (second compound 0.3 µM, first compound 10 µM) was 96.3% and the viability, T/C [28] was 108%. It also gave a viability, T/C [29] of 113%, a viability, T/C (second compound 0.949 µM, first compound 0.316 µM) of 102% and a viability, T/C (second compound 0.949 µM, first compound 1 µM) of 111%. The viability, T/C (second compound 0.949 µM, first compound 3.16 µM) was 106%, the viability, T/C (second compound 0.949 µM, first compound 10 µM) was 96.2% and the viability, T/C [30] was 104%. For the same compound, the viability, T/C [31] was 107%, the viability, T/C (second compound 3 µM, first compound 0.316 µM) was 106% and the viability, T/C (second compound 3 µM, first compound 1 µM) was 96.9%. It also gave a viability, T/C (second compound 3 µM, first compound 3.16 µM) of 103%, a viability, T/C (second compound 3 µM, first compound 10 µM) of 93.8% and a viability, T/C [32] of 99.8%. For the same compound, the viability, T/C [33] was 107%, the viability, T/C (second compound 9.49 µM, first compound 0.316 µM) was 102% and the viability, T/C (second compound 9.49 µM, first compound 1 µM) was 90.5%. For the same compound, the viability, T/C (second compound 9.49 µM, first compound 3.16 µM) was 96%, the viability, T/C (second compound 9.49 µM, first compound 10 µM) was 99.5% and the viability, T/C [34] was 93.5%. The viability, T/C [35] was 101%, the viability, T/C (second compound 30 µM, first compound 0.316 µM) was 96.2% and the viability, T/C (second compound 30 µM, first compound 1 µM) was 99.4%. For the same compound, the viability, T/C (second compound 30 µM, first compound 3.16 µM) was 86.8% and the viability, T/C (second compound 30 µM, first compound 10 µM) was 94%.
`CC(C)CC(NC(=O)CNC(=O)c1cc(Cl)ccc1Cl)B1OC(=O)CC(CC(=O)O)(C(=O)O)O1` (centres undefined) + CC(C)NCC(C(=O)N1CCN(c2ncnc3c2C(C)CC3O)CC1)c1ccc(Cl)cc1 was tested, and the IC50 [1] was greater than 100 nM, the IC50 [2] was greater than 100 nM and the IC50 [3] was greater than 100 nM. It also gave an IC50 [4] greater than 100 nM, an IC50 [5] greater than 100 nM and a viability, T/C [6] of 98.8%. The viability, T/C [7] was 105%, the viability, T/C [8] was 96% and the viability, T/C [9] was 94.4%. It also gave a viability, T/C [26] of 79.7%, a viability, T/C [27] of 57.7% and a viability, T/C [10] of 117%. The viability, T/C [11] was 107%, the viability, T/C [12] was 102% and the viability, T/C [13] was 98.4%. It also gave a viability, T/C [28] of 79.6%, a viability, T/C [29] of 61.1% and a viability, T/C [14] of 107%. It also gave a viability, T/C [15] of 98.8%, a viability, T/C [16] of 88.5% and a viability, T/C [17] of 98.7%. It also gave a viability, T/C [30] of 75.5%, a viability, T/C [31] of 58.4% and a viability, T/C [18] of 95.7%. The viability, T/C [19] was 96.7%, the viability, T/C [20] was 93% and the viability, T/C [21] was 89%. It also gave a viability, T/C [32] of 70.4%, a viability, T/C [33] of 56.5% and a viability, T/C [22] of 85.7%. It also gave a viability, T/C [23] of 90.5%, a viability, T/C [24] of 87% and a viability, T/C [25] of 83.3%. For the same compound, the viability, T/C [34] was 75.3% and the viability, T/C [35] was 57.5%.
For `COc1c(OCCCN2CCOCC2)ccc2c3n(c(=NC(=O)c4cnc(N)nc4)nc12)CCN3`, the viability, T/C (compound 0.00316 µM) was 103% and 116%, the viability, T/C (compound 0.01 µM) was 91% and 95.7% and the viability, T/C (compound 0.0316 µM) was 82.8% and 82.9%. For the same compound, the viability, T/C (compound 0.1 µM) was 75.8% and 72.9%, the viability, T/C (compound 0.316 µM) was 68.9% and 70.3% and the viability, T/C (compound 1 µM) was 66% and 72.5%. For the same compound, the IC50 (curve of compound) was greater than 1000 nM.
